Reference: PubChem BioAssay (NCI)
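Grown in 96-well plates, cells were treated for 48 hours with each compound at five concentrations. Insufficient inhibition: endpoint recorded as highest concentration tested. TGI: total growth inhibition.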

Tests used:
Assay in all cases: NCI-60 cell line screen, 48 h
786-0 renal = system: 786-0 renal
A549 NSCLC = system: A549 NSCLC
ACHN renal = system: ACHN renal
CAKI-1 renal = system: CAKI-1 renal
CCRF-CEM leukemia = system: CCRF-CEM leukemia
COLO 205 colon = system: COLO 205 colon
DU-145 prostate = system: DU-145 prostate
EKVX NSCLC = system: EKVX NSCLC
HCC-2998 colon = system: HCC-2998 colon
HCT-116 colon = system: HCT-116 colon
HCT-15 colon = system: HCT-15 colon
HL-60(TB) leukemia = system: HL-60(TB) leukemia
HOP-62 NSCLC = system: HOP-62 NSCLC
HOP-92 NSCLC = system: HOP-92 NSCLC
HS 578T breast = system: HS 578T breast
HT29 colon = system: HT29 colon
IGROV1 ovarian = system: IGROV1 ovarian
K-562 leukemia = system: K-562 leukemia
KM12 colon = system: KM12 colon
M14 melanoma = system: M14 melanoma
MALME-3M melanoma = system: MALME-3M melanoma
MCF7 breast = system: MCF7 breast
MDA-MB-231 breast = system: MDA-MB-231 breast
MDA-MB-435 = system: MDA-MB-435
MDA-N = system: MDA-N
MOLT-4 leukemia = system: MOLT-4 leukemia
NCI-H226 lung = system: NCI-H226 lung
NCI-H23 lung = system: NCI-H23 lung
NCI-H460 lung = system: NCI-H460 lung
NCI-H522 lung = system: NCI-H522 lung
NCI/ADR-RES ovarian = system: NCI/ADR-RES ovarian
OVCAR-3 ovarian = system: OVCAR-3 ovarian
OVCAR-4 ovarian = system: OVCAR-4 ovarian
OVCAR-5 ovarian = system: OVCAR-5 ovarian
OVCAR-8 ovarian = system: OVCAR-8 ovarian
PC-3 prostate = system: PC-3 prostate
RPMI-8226 leukemia = system: RPMI-8226 leukemia
RXF 393 renal = system: RXF 393 renal
SF-268 CNS = system: SF-268 CNS
SF-295 CNS = system: SF-295 CNS
SF-539 CNS = system: SF-539 CNS
SK-MEL-2 melanoma = system: SK-MEL-2 melanoma
SK-MEL-28 melanoma = system: SK-MEL-28 melanoma
SK-MEL-5 melanoma = system: SK-MEL-5 melanoma
SK-OV-3 ovarian = system: SK-OV-3 ovarian
SN12C renal = system: SN12C renal
SNB-19 CNS = system: SNB-19 CNS
SNB-75 CNS = system: SNB-75 CNS
SR leukemia = system: SR leukemia
SW-620 colon = system: SW-620 colon
T-47D breast = system: T-47D breast
TK-10 renal = system: TK-10 renal
U251 CNS = system: U251 CNS
UACC-257 melanoma = system: UACC-257 melanoma
UO-31 renal = system: UO-31 renal
UACC-62 melanoma = system: UACC-62 melanoma
BT-549 breast = system: BT-549 breast
LOX IMVI melanoma = system: LOX IMVI melanoma
A498 renal = system: A498 renal

O=C(O)c1cc2ccccc2c(N=Nc2cc(C(F)(F)F)ccc2Cl)c1O
TGI (786-0 renal): > 100 µM | TGI (A549 NSCLC): > 100 µM | TGI (ACHN renal): > 100 µM | TGI (CAKI-1 renal): > 100 µM | TGI (CCRF-CEM leukemia): > 100 µM | TGI (COLO 205 colon): > 100 µM | TGI (DU-145 prostate): > 100 µM | TGI (EKVX NSCLC): > 100 µM | TGI (HCC-2998 colon): > 100 µM | TGI (HCT-116 colon): > 100 µM | TGI (HCT-15 colon): > 100 µM | TGI (HL-60(TB) leukemia): > 100 µM | TGI (HOP-62 NSCLC): > 100 µM | TGI (HOP-92 NSCLC): > 100 µM | TGI (HS 578T breast): > 100 µM | TGI (HT29 colon): > 100 µM | TGI (IGROV1 ovarian): > 100 µM | TGI (K-562 leukemia): > 100 µM | TGI (KM12 colon): > 100 µM | TGI (M14 melanoma): > 100 µM | TGI (MALME-3M melanoma): > 100 µM | TGI (MCF7 breast): > 100 µM | TGI (MDA-MB-231 breast): 86.7 µM | TGI (MDA-MB-435): > 100 µM | TGI (MDA-N): > 100 µM | TGI (MOLT-4 leukemia): > 100 µM | TGI (NCI-H226 lung): > 100 µM | TGI (NCI-H23 lung): > 100 µM | TGI (NCI-H460 lung): > 100 µM | TGI (NCI-H522 lung): > 100 µM | TGI (NCI/ADR-RES ovarian): > 100 µM | TGI (OVCAR-3 ovarian): > 100 µM | TGI (OVCAR-4 ovarian): > 100 µM | TGI (OVCAR-5 ovarian): > 100 µM | TGI (OVCAR-8 ovarian): > 100 µM | TGI (PC-3 prostate): > 100 µM | TGI (RPMI-8226 leukemia): > 100 µM | TGI (RXF 393 renal): > 100 µM | TGI (SF-268 CNS): > 100 µM | TGI (SF-295 CNS): > 100 µM | TGI (SF-539 CNS): > 100 µM | TGI (SK-MEL-2 melanoma): > 100 µM | TGI (SK-MEL-28 melanoma): > 100 µM | TGI (SK-MEL-5 melanoma): > 100 µM | TGI (SK-OV-3 ovarian): > 100 µM | TGI (SN12C renal): > 100 µM | TGI (SNB-19 CNS): 21.5 µM | TGI (SNB-75 CNS): 0.0907 µM | TGI (SR leukemia): > 100 µM | TGI (SW-620 colon): > 100 µM | TGI (T-47D breast): > 100 µM | TGI (TK-10 renal): > 100 µM | TGI (U251 CNS): > 100 µM | TGI (UACC-257 melanoma): > 100 µM | TGI (UO-31 renal): > 100 µM

O=[N+]([O-])c1ccc(/C=N/Nc2nnc3c4ccccc4c4ncccc4c3n2)o1
TGI (786-0 renal): > 10 µM | TGI (A549 NSCLC): > 10 µM | TGI (CAKI-1 renal): > 10 µM | TGI (CCRF-CEM leukemia): > 10 µM | TGI (COLO 205 colon): > 10 µM | TGI (DU-145 prostate): > 10 µM | TGI (EKVX NSCLC): > 10 µM | TGI (HCC-2998 colon): > 10 µM | TGI (HCT-15 colon): > 10 µM | TGI (HL-60(TB) leukemia): > 10 µM | TGI (HOP-62 NSCLC): > 10 µM | TGI (HT29 colon): > 10 µM | TGI (IGROV1 ovarian): > 10 µM | TGI (K-562 leukemia): > 10 µM | TGI (KM12 colon): > 10 µM | TGI (M14 melanoma): > 10 µM | TGI (MALME-3M melanoma): > 10 µM | TGI (MCF7 breast): > 10 µM | TGI (MDA-MB-231 breast): > 10 µM | TGI (MDA-N): > 10 µM | TGI (MOLT-4 leukemia): > 10 µM | TGI (NCI-H23 lung): > 10 µM | TGI (OVCAR-8 ovarian): > 10 µM | TGI (PC-3 prostate): > 10 µM | TGI (RPMI-8226 leukemia): > 10 µM | TGI (RXF 393 renal): > 10 µM | TGI (SF-268 CNS): > 10 µM | TGI (SF-295 CNS): > 10 µM | TGI (SK-MEL-28 melanoma): > 10 µM | TGI (SK-MEL-5 melanoma): > 10 µM | TGI (SK-OV-3 ovarian): > 10 µM | TGI (SN12C renal): > 10 µM | TGI (SNB-75 CNS): > 10 µM | TGI (SR leukemia): > 10 µM | TGI (SW-620 colon): > 10 µM | TGI (T-47D breast): > 10 µM | TGI (TK-10 renal): > 10 µM | TGI (UACC-257 melanoma): > 10 µM | TGI (UACC-62 melanoma): > 10 µM

CCOC(=O)Cc1csc2[n+]1C(=O)/C(=C/c1cccc(OC)c1O)S2
TGI (786-0 renal): > 100 µM | TGI (A549 NSCLC): > 100 µM | TGI (ACHN renal): > 100 µM | TGI (BT-549 breast): 48.9 µM | TGI (CAKI-1 renal): > 100 µM | TGI (COLO 205 colon): > 100 µM | TGI (DU-145 prostate): > 100 µM | TGI (EKVX NSCLC): > 100 µM | TGI (HCC-2998 colon): > 100 µM | TGI (HCT-116 colon): > 100 µM | TGI (HCT-15 colon): > 100 µM | TGI (HL-60(TB) leukemia): > 100 µM | TGI (HOP-62 NSCLC): > 100 µM | TGI (HOP-92 NSCLC): > 100 µM | TGI (HT29 colon): > 100 µM | TGI (IGROV1 ovarian): > 100 µM | TGI (KM12 colon): > 100 µM | TGI (LOX IMVI melanoma): > 100 µM | TGI (M14 melanoma): > 100 µM | TGI (MCF7 breast): > 100 µM | TGI (MDA-MB-231 breast): > 100 µM | TGI (MDA-MB-435): 50.5 µM | TGI (MDA-N): > 100 µM | TGI (MOLT-4 leukemia): > 100 µM | TGI (NCI-H226 lung): > 100 µM | TGI (NCI-H23 lung): > 100 µM | TGI (NCI-H460 lung): > 100 µM | TGI (NCI/ADR-RES ovarian): > 100 µM | TGI (OVCAR-3 ovarian): > 100 µM | TGI (OVCAR-4 ovarian): > 100 µM | TGI (OVCAR-5 ovarian): > 100 µM | TGI (OVCAR-8 ovarian): > 100 µM | TGI (PC-3 prostate): > 100 µM | TGI (SF-295 CNS): > 100 µM | TGI (SF-539 CNS): > 100 µM | TGI (SK-MEL-2 melanoma): > 100 µM | TGI (SK-MEL-28 melanoma): > 100 µM | TGI (SK-MEL-5 melanoma): > 100 µM | TGI (SK-OV-3 ovarian): > 100 µM | TGI (SN12C renal): > 100 µM | TGI (SNB-19 CNS): > 100 µM | TGI (SNB-75 CNS): > 100 µM | TGI (SW-620 colon): > 100 µM | TGI (T-47D breast): > 100 µM | TGI (TK-10 renal): > 100 µM | TGI (U251 CNS): > 100 µM | TGI (UACC-257 melanoma): > 100 µM | TGI (UACC-62 melanoma): > 100 µM | TGI (UO-31 renal): > 100 µM

Cc1cc(S(=O)(=O)/N=C(\[N-]S(=O)(=O)c2ccc(Cl)cc2)[n+]2ccc(N(C)C)cc2)c(S)cc1Cl
TGI (786-0 renal): > 100 µM | TGI (A498 renal): 99.2 µM | TGI (ACHN renal): > 100 µM | TGI (CAKI-1 renal): > 100 µM | TGI (CCRF-CEM leukemia): > 100 µM | TGI (DU-145 prostate): > 100 µM | TGI (EKVX NSCLC): > 100 µM | TGI (HCC-2998 colon): > 100 µM | TGI (HCT-116 colon): 44.7 µM | TGI (HCT-15 colon): > 100 µM | TGI (HL-60(TB) leukemia): > 100 µM | TGI (HOP-62 NSCLC): > 100 µM | TGI (HS 578T breast): > 100 µM | TGI (HT29 colon): > 100 µM | TGI (IGROV1 ovarian): > 100 µM | TGI (K-562 leukemia): > 100 µM | TGI (KM12 colon): > 100 µM | TGI (LOX IMVI melanoma): > 100 µM | TGI (M14 melanoma): > 100 µM | TGI (MCF7 breast): > 100 µM | TGI (MDA-MB-231 breast): > 100 µM | TGI (MDA-MB-435): > 100 µM | TGI (MDA-N): > 100 µM | TGI (MOLT-4 leukemia): 96.5 µM | TGI (NCI-H226 lung): > 100 µM | TGI (NCI-H23 lung): > 100 µM | TGI (NCI-H460 lung): > 100 µM | TGI (NCI-H522 lung): > 100 µM | TGI (NCI/ADR-RES ovarian): > 100 µM | TGI (OVCAR-3 ovarian): > 100 µM | TGI (OVCAR-4 ovarian): > 100 µM | TGI (OVCAR-5 ovarian): > 100 µM | TGI (OVCAR-8 ovarian): > 100 µM | TGI (PC-3 prostate): > 100 µM | TGI (RPMI-8226 leukemia): > 100 µM | TGI (RXF 393 renal): > 100 µM | TGI (SF-268 CNS): > 100 µM | TGI (SF-295 CNS): > 100 µM | TGI (SF-539 CNS): > 100 µM | TGI (SK-MEL-2 melanoma): > 100 µM | TGI (SK-MEL-28 melanoma): > 100 µM | TGI (SK-MEL-5 melanoma): > 100 µM | TGI (SK-OV-3 ovarian): > 100 µM | TGI (SR leukemia): 3.13 µM | TGI (SW-620 colon): > 100 µM | TGI (T-47D breast): > 100 µM | TGI (TK-10 renal): > 100 µM | TGI (U251 CNS): > 100 µM | TGI (UACC-257 melanoma): > 100 µM | TGI (UO-31 renal): > 100 µM
